According to paper PMC10007235 (Polymers, 2023):

Assays:
[1] = parameters: method as in a previous report; conditions: absence of polymer; ref a previous report; cited from earlier work
[2] = Nucleation induction time measurement from supersaturated solution; assay type: physicochemical; conditions: for Nucleation induction time / Time high (supersaturated) concentration maintained: 25 °C
Experimental: HPLC was analyzed using a Dionex-Ultimate 3000 HPLC (Dionex, Sunnyvale, CA, USA) equipped with an Inertsil ODS C18 (6.0 × 150 mm) column at 35 °C. […] The samples were analyzed by injecting 10 μL at 244 nm using a UV detector. […] The linearity was evaluated by linear regression analysis calculated using the least-squares regression method. […] The experiment was performed in triplicate (mean values + SD). Each polymer (chitosan and HPMC) was dissolved in an aqueous solution at a concentration of 500 μg/mL.

CC(C)c1nc(CN(C)C(=O)N[C@H](C(=O)N[C@@H](Cc2ccccc2)C[C@H](O)[C@H](Cc2ccccc2)NC(=O)OCc2cncs2)C(C)C)cs1 [RTV, ritonavir]
Induction time [1]: 120 min | Nucleation induction time ([2]; HPMC solution 500 μg/mL): 32 h | Nucleation induction time ([2]; absence of polymer (water)): 0.5 h | Nucleation induction time ([2]; chitosan solution 500 μg/mL): 24 h | Time high (supersaturated) concentration maintained ([2]; chitosan solution 500 μg/mL): 24 h | Time high (supersaturated) concentration maintained ([2]; water): 0.5 h | Enhancement in induction time ([2]; with chitosan and HPMC versus no polymer): 48–64 fold
